The structures appear in SMILES notation. Structures can show the parent of a compound that is named as a salt.

Data set [1] deals with T1, α2δ subunit derived from porcine brain tissue (Sus scrofa, UniProt A0A287BIN3).
T1 construct: the α2δ subunit derived from porcine brain tissue was used; from tissue; host or cells: porcine brain tissue
As to the kind of experiment: radioligand binding assay using [3H]gabapentin and the α2δ subunit. Conditions: read-out: IC50 (μM) at α2δ Binding Site.

In data set [2] the test system is carrageenin-induced hyperalgesia in the rat paw. As to the kind of experiment: Carrageenin-induced hyperalgesia, rat paw pressure test (Randall-Selitto). The class given is in vivo, rat (male Sprague-Dawley). The note with it: dosed orally at 30 mg/kg. On the procedure:
Carrageenin-Induced Hyperalgesia
Nociceptive pressure thresholds were measured in the rat paw pressure test using an analgesimeter (Randall-Selitto method: Randall L. O. and Selitto J. J., “A method for measurement of analgesic activity on inflamed tissue,” Arch. Int. Pharmacodyn., 1957;4:409-419). Male Sprague-Dawley rats (70-90 g) were trained on this apparatus before the test day. Pressure was gradually applied to the hind paw of each rat and nociceptive thresholds were determined as the pressure (g) required to elicit paw withdrawal. A cutoff point of 250 g was used to prevent any tissue damage to the paw. On the test day, two to three baseline measurements were taken before animals were administered 100 μL of 2% carrageenin by intraplantar injection into the right hind paw.
(R)-2-Aza-spiro[4.5]decane-4-carboxylic acid hydrochloride was tested in the above carrageenan-induced hyperalgesia model. The compound was dosed orally at 30 mg/kg, and 1 hour postdose gave a percent of maximum possible effect (MPE) of 53%. At 2 hours postdose, it gave only 4.6% of MPE.

T1 sequence (A0A287BIN3 25-1109): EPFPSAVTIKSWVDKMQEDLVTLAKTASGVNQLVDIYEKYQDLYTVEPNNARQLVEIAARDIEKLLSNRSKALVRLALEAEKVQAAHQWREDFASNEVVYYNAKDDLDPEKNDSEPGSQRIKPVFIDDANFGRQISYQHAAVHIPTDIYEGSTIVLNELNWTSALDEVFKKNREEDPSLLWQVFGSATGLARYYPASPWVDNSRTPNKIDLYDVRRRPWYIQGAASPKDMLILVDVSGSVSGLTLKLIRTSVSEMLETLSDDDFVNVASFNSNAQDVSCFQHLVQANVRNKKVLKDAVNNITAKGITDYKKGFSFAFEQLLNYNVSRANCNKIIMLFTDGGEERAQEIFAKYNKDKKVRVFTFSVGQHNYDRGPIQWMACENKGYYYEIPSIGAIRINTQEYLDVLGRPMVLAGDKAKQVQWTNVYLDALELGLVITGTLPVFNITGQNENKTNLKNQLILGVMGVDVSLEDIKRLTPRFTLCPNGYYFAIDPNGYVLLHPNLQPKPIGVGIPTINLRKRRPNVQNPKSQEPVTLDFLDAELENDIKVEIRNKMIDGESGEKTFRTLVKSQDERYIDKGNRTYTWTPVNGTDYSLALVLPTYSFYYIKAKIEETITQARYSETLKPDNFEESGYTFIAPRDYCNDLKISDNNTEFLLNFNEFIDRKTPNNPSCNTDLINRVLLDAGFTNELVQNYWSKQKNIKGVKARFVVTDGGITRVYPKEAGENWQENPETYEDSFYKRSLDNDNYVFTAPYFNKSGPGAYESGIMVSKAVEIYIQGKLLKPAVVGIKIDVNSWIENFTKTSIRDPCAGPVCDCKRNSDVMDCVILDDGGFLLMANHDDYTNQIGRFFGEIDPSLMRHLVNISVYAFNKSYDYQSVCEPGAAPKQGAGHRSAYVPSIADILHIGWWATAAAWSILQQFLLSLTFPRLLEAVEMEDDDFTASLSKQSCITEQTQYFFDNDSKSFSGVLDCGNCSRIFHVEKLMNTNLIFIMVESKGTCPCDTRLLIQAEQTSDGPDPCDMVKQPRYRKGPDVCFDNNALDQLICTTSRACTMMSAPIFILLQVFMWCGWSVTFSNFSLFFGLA

Molecule `Cl.O=C(O)C1NCC12CCCCC2` (racemic) [(±)-2-Aza-spiro[3.5]nonane-1-carboxylic acid hydrochloride] showed a melting point of 163 to 165 °C. Also, the IC50 in data set [1] turned out to be 1.5 µM. On to `O=C(O)C1CNCC12CCCCC2` (racemic) [(±)-2-Aza-spiro[4.5]decane-4-carboxylic acid hydrochloride], for which the IC50 in data set [1] was 0.35 µM. On to `Cl.O=C(O)[C@H]1CNCC12CCCCC2` [(R)-2-Aza-spiro[4.5]decane-4-carboxylic acid hydrochloride], for which, in data set [1], the IC50 came to 0.16 µM. The “percent of maximum possible effect (MPE)” value in data set [2] (1 hour postdose) was 53%; in data set [2] (2 hours postdose) it was 4.6%.

Regarding `O=C(O)[C@@H]1CNCC12CCCCC2` [(S)-2-Aza-spiro[4.5]decane-4-carboxylic acid hydrochloride], the IC50 in data set [1] was greater than 10 µM. For `O=C(O)C1CNCC12C1CCCC2CCC1` (stereo not drawn) [Spiro[bicyclo[3.3.1]nonane-9,3′-pyrrolidine]-4′-carboxylic acid], the IC50 in data set [1] worked out at 0.57 µM. Same read-out and setting: the value for `O=C(O)C1CNCC12C1CC3CC(C1)CC2C3` (stereo not drawn) [Spiro[pyrrolidine-3,2′-tricyclo[3.3.1.1^3,7]decane]-4-carboxylic acid] was 0.42 µM.

A word on the IC50: it is the concentration at which inhibition is half-maximal. As usually defined, the melting point is the temperature, or range, at which the solid turns liquid.

The values above are taken from patent US6489352B2, “Conformationally constrained compounds as pharmaceutical agents” (Warner-Lambert Company, priority 1998, dated 2002).
